# Laboratory results from US8598193B2, “Polycyclic agents for the treatment of respiratory syncytial virus infections” (Biota Scientific Management Pty Ltd., priority 2003, dated 2013).
# pEC50: −log10 of the molar value. Read-outs that look alike come from different tables or passages of the source.
# What was measured:
# RSV A2 [1] = assay: RSV cotton rat model; type: in vivo; conditions: oral 100 mg/kg/day, lung RSV titres by plaque assay four days after inoculation
# Experimental: Method S: RSV Cotton Rat Model
# The cotton rat model was performed essentially as described in the literature (Wyde et al, Antiviral Res. 2003, 60, 221). Briefly, cotton rats weighing 50-100 g were lightly anesthetized with isoflurane and dosed orally with 100 mg/kg/day of compound or vehicle control. Viral infection followed 2 hours post-treatment in similarly anesthetized rats by intranasal instillation with approximately 1000 TCID50 of RSV A2 per animal. Four days after virus inoculation, each cotton rat was sacrificed and their lungs removed and RSV titres determined by plaque assay.
# RSV A2 [2] = assay: RSV antiviral cytopathic effect (CPE) assay, MTT readout; type: cell-based; conditions: human respiratory syncytial virus, HEp-2, 120 h
# Experimental: Method Q: RSV Antiviral Assay Protocol
# Compounds of the invention were tested for their antiviral activity against respiratory syncytial virus. Cytopathic effect (CPE) assays were performed essentially as described in the literature (see for example Watanabe et al, 1. Virological Methods, 1994, 48, 257). Serial dilutions of the test compounds were made in assay medium. HEp2 cells (1.0×10^4 cells/well) were infected with RSV at a low multiplicity of infection (e.g. RSV A2 at an moi of 0.01) and 100 μL added to cultures assessing antiviral activity and cells without virus added to those assessing compound cytotoxicity. Assays were incubated for approximately 5 days at 37° C. in a 5% CO2 atmosphere. The extent of CPE was determined via metabolism of the vital dye 3-(4,5-dimethylthiaxol-2-yl)-2,5-diphenyltetrazolium bromide (MTT). A 3 mg/ml stock of MTT was made in assay medium and 100 μL added to each well, taking the final MTT concentration to […]. After 2 hours incubation at 37° C., the media-MTT solution was removed and 200 μL of isopropanol was added to dissolve the vital dye crystals. Plates were shaken and the absorbance read at 540 nm. The compound concentrations that inhibited CPE by 50% (EC50) and developed cytotoxicity (CC50) were calculated using an Excel curve fitting program.
# [3] = molecular target: T1, RSV A2 F glycoprotein (membrane-anchored full-length F) in 293 cells (Human respiratory syncytial virus A, UniProt P03420); assay: RSV fusion assay (syncytium formation assay); type: cell-based
# T1 construct: A membrane-anchored full-length F was generated essentially according to the method described therein; expressed in transfected cells; host or cells: 293 cells
# Experimental: Method R: RSV Fusion Assay
# Selected compounds of the invention were tested for their ability to inhibit the essential fusion processes of the respiratory syncytial virus.
# Single-stranded synthetic DNA oligonucleotides encoding the portions of RSV A2 F glycoprotein incorporating optimal codons and without potential poly(A) addition or splice sites were generated synthetically (Mason et al, WO0242326). A membrane-anchored full-length F was generated essentially according to the method described therein and in Morton et al, Virology, 2003, 311, 275.
# Fusion activity of the RSV-F constructs was measured in 293 cells essentially according to the method described in Morton et al, Virology, 2003, 311, 275. For example: cells in six well plates at approximately 80% confluency were transfected by adding plasmid DNA (2 μg/well) carrying the constructs of interest in CaPO4 solution for 4 hours. After glycerol shock and wash, the transfected cells were trypsinized and 1.5×10^4 cells/well added to 96-well plates containing half-log serial dilutions of the test compound. Syncytium formation was evaluated by visual inspection and quantified at 48 hours post-transfection by addition of 20 μL of CellTiter 96 One Solution (Promega) followed by incubation for 4 hours at 37° C. The colour reaction was then stopped by addition of 25 μL 10% SDS to each well and absorbance measured at 492 nm. The compound concentration that reduced absorbance relative to untreated control cultures by 50% (EC50) was calculated using an Excel curve fitting program.
# RSV A2 [4] = assay: RSV Balb/c mouse model; type: in vivo; conditions: female Balb/c mice, compound orally 6 hours preinfection, lung RSV titres by plaque assay three days after virus inoculation
# Experimental: Method T: RSV Balb/c Mouse Model
# The mouse model was performed essentially as described by Clanci et al (Antimicrobial Agents and Chemotherapy. 2004, 48, 413). Briefly, eight week old female Balb/c mice were weighed, anesthetized intraperitoneally with Avertin™ and compound or vehicle administered orally 6 hours preinfection. Mice were inoculated intranasally with approximately 10000 TCID50 RSV A2 per animal. Three days after virus inoculation, each mouse was sacrificed and their lungs removed and RSV titres determined by plaque assay.
# [5] = RSV A2 in HEp2 cells, CPE assay, MTT, approx. 5 days, read-out: Activity Range (RSV A2 antiviral EC50), compounds of Table 2
# [6] = RSV A2 in HEp2 cells, CPE assay, MTT, approx. 5 days, read-out: Activity Range (RSV A2 antiviral EC50), compounds of Table 3
# T1 sequence (P03420 26-109): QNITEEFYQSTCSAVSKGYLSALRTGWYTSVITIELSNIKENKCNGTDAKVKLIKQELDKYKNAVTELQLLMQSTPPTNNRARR
# T1 sequence (P03420 137-574): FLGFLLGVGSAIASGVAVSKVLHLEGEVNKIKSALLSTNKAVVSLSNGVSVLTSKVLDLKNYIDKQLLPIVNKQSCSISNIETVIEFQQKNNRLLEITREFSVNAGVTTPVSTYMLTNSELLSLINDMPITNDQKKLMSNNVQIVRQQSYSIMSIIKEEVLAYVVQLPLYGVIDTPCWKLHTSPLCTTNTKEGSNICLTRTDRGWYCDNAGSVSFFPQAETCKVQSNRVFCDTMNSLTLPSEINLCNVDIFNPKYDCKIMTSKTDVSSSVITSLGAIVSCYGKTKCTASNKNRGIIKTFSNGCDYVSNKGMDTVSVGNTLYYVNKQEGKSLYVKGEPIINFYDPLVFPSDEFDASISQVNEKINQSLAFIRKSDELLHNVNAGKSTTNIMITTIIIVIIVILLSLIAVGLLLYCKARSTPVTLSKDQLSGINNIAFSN
EC50 (RSV A2 [2]; [5]) [µg/mL],Compound,pEC50 [3],also measured
< 0.1,O=C(c1ccc(F)nc1)N1CCN2C(=O)c3ccccc3C12c1ccc(Cl)cc1 (centres unmarked) [Compound 306],,% Reduction of virus Control (RSV A2 [1]): 72%
0.25 to 1,COc1ccc(CC(=O)N2CCN3C(=O)c4ccccc4C23c2ccc(C(F)(F)F)cc2)cc1 (centres unmarked) [Compound 304],,
0.25 to 1,Cc1ccc(CNC(=O)N2CCN3C(=O)c4ccccc4C23c2ccc(C)cc2)cc1 (centres unmarked) [Compound 178],,
< 0.1,COc1ccc(-c2ocnc2C(=O)N2CCN3C(=O)c4ccccc4C32c2ccc(Cl)cc2)cc1 (centres unmarked) [Compound 332],,
< 0.1,O=C(c1ccc(F)cc1)N1CCN2C(=O)c3ccccc3C12c1ccc(OCC2CC2)cc1 (centres unmarked) [Compound 267],,
0.25 to 1,CCc1ccc(C23c4ccccc4C(=O)N2CCN3C(=O)Cc2ccc(OC)cc2)cc1 (centres unmarked) [Compound 190],,

# More lines, now with the values behind:
Compound,EC50 (RSV A2 [2]; [5]) [µg/mL],pEC50 [3],also measured
COc1ccc(CC(=O)N2CCN3C(=O)c4ccccc4C23c2ccc(C)cc2)cc1 (centres unmarked) [Compound 66],0.1 to 0.25,5.44 to 5.74,
O=C(c1ccc(F)cc1)N1CCN2C(=O)c3ccncc3C12c1ccc(Cl)cc1 (centres unmarked) [Compound 336],,> 5.74,% Reduction of virus Control (RSV A2 [4]): 80%; % Reduction of virus Control (RSV A2 [1]): 96%; EC50 (RSV A2 [2]; [6]): 0.1 to 0.25 µg/mL
CCC(=O)N1CCN2C(=O)c3ccccc3C12c1ccc(Cl)cc1 (centres unmarked) [Compound 16],,5.36 to 5.66,
O=C(c1ccc(F)cc1)N1CCN2C(=O)c3ccccc3C12c1ccc(Cl)cc1 (centres unmarked) [Compound 12],,5.26 to 5.43,"EC50 (RSV A2 [2]; read-out: Activity Range (RSV A2 antiviral EC50), compounds of Table 2): 0.1 to 0.25 µg/mL"
O=C1c2ccncc2C2(c3ccc(Cl)cc3)N1CCN2C(=O)c1cccnc1Oc1ccc(Cl)cc1 (centres unmarked) [Compound 395],,,EC50 (RSV A2 [2]; [6]): 0.25 to 1 µg/mL
Nc1ccc(C(=O)N2CCN3C(=O)c4ccccc4C23c2ccc(Cl)cc2)cn1 (centres unmarked) [Compound 319],0.25 to 1,,
O=C(c1ccc(F)cc1)N1CCN2C(=O)c3cc[n+]([O-])cc3C12c1ccc(Cl)cc1 (centres unmarked) [Compound 352],,,% Reduction of virus Control (RSV A2 [1]): 68%; EC50 (RSV A2 [2]; [6]): 0.1 to 0.25 µg/mL
